Experimental findings from PMC8958505, “Discovery of Potential Neuroprotective Agents against Paclitaxel-Induced Peripheral Neuropathy” (Journal of Medicinal Chemistry, 2022) are described below.

Assay [1] concerns primary cortical neurons. The assay is described as follows: Synaptogenesis assay of primary cortical neurons (image-based HCS) against paclitaxel-induced neurotoxicity. The format is cell-based, mouse. To be noted: for activity at 0.01 µM / activity at 1 µM: Mus musculus, Primary cortical neuron; for activity at 0.01 µM: read-out: A: Synaptogenesis (% of control) of test compound (10 nM) + paclitaxel (1 μM); for activity at 1 µM: read-out: B: Synaptogenesis (% of control) of test compound (1000 nM) + paclitaxel (1 μM). The source says: (§1) Herein, we wish to report that an in vitro neurite outgrowth assay of cortical neurons integrated with an image-based high-content screening (HCS) platform is used to evaluate a commercially available library of 78 minoxidil-related derivatives,[22] leading to the identification of a series of analogues able to prevent or alleviate paclitaxel-induced neurotoxicity. The project began with screening compounds with the primary culture of cortical neurons from neonatal mice. More specifically, cerebral cortex neurons cultured from P0 C57BL/6J mouse pups were incubated with a test compound (10 and 1000 nM) prior to paclitaxel (1 μM) treatment. Subsequently, both neurite outgrowth and synaptogenesis were measured to evaluate the test compounds’ neuroprotective capacity. […] This unique feature is preserved for the core-structure screening of our in-house library in the following subject. Moreover, the substituent at the C4 position appears flexible in terms of structural diversity. Collectively, CSV0A024807, the only one displaying the best neuroprotective potency on both neurite outgrowth and synaptogenesis assays, was thus elected as a potential hit compound for further development.
(§2) Primary cortical or DRG cells were fixed with 4% paraformaldehyde for 15 min following compound and paclitaxel treatment. After washing with PBS, the fixed cells were permeabilized with PBS containing 0.05% Triton X-100 for 20 min and then blocked with commercial blocking buffer (#GTX30963; GeneTex, USA) at room temperature for 1 h. Subsequently, the cortical cells were stained for the extending processes and synaptic puncta by using anti-MAP2 (#MBS502140, 1:500; Mybiosource, USA) and anti-synaptophysin (#ab32127, 1:500; Abcam, UK) overnight. DRG cells were stained for the neurite and neuron nucleus by using anti-β III tubulin (#D71G9, 1:600; Cell Signaling, USA) and anti-NeuN monoclonal antibody (#MAB377, 1:400; Millipore, USA) overnight. On the second day, the samples were washed for 30 min with wash buffer and incubated with secondary antibodies (Alexa-488, 647 1:600; Thermo Fisher, USA) and 4 μg/mL Hoechst 33258 (#94403-1ML, 1:100; Merck, USA) at room temperature for 1 h. In the initial experiments of screening the potential neuroprotective compound for CIPN, ImageXpress^Micro (IXM) high-content imaging system (Molecular Devices, USA) driven by MetaXpress software was used. Images of treated cells were automatically acquired by using a 10× objective. Twenty-one images per well were taken in each of three channels (DAPI, FITC, and Cy5) to create a whole view of the entire neural network. The integrity of the neural network was evaluated using TIF images by importing them into MetaXpress software for analysis using the module for multiparameter, such as Neurite Outgrowth, Cell Scoring, and Transfluor. Furthermore, the score of synaptogenesis was analyzed in AcuityXpress software (Molecular Devices, USA).

Assay [2] has as its system primary cortical neurons. The assay is described as follows: Neurite outgrowth assay of primary cortical neurons (image-based HCS) against paclitaxel-induced neurotoxicity. The format is cell-based, mouse. To be noted: for activity at 0.01 µM / activity at 1 µM: Mus musculus, Primary cortical neuron; for activity at 0.01 µM: read-out: C: Neurite outgrowth (% of control) of test compound (10 nM) + paclitaxel (1 μM); for activity at 1 µM: read-out: D: Neurite outgrowth (% of control) of test compound (1000 nM) + paclitaxel (1 μM).
Text: as §1, §2

The mark [3] stands for this setting: test compound 10 nM + paclitaxel 1 μM, mean ± SE.
Where [4] appears, read: test compound 1000 nM + paclitaxel 1 μM, mean ± SE.
Where [5] appears, read: test compound 10 and 1000 nM prior to paclitaxel 1 μM, Figure 1A.

For the molecule `Oc1ccc(Br)cc1/C=N/Nc1cc(N2CCOCC2)nc(N2CCOCC2)n1` [CSV0A013030], the results for the activity at 0.01 µM with primary cortical neurons [1] (setting [3]) and in the assay with primary cortical neurons [2] (setting [3]) were 26 ± 2% and 76 ± 5%, respectively. The activity at 1 µM is 26 ± 3% with primary cortical neurons [1] (setting [4]) and 89 ± 11% with primary cortical neurons [2] (setting [4]).

As to `O=[N+]([O-])c1cc(/C=N/Nc2cc(N3CCCCCC3)nc(N3CCCCCC3)n2)cc2c1OCO2` [CSV0A024811], the activity at 0.01 µM in the assay with primary cortical neurons [1] (setting [3]) is 52 ± 1%; in the assay with primary cortical neurons [2] (setting [3]) it was 69 ± 7%. In addition, the activity at 1 µM in the assay with primary cortical neurons [1] (setting [4]) worked out at 46 ± 4%; in the assay with primary cortical neurons [2] (setting [4]), 60 ± 3%.

Turning to `O=C(CCc1ccccc1)NNc1cc(N2CCCC2)nc(N2CCCC2)n1` [CSV0C019163], in the assay on primary cortical neurons [1], the activity at 0.01 µM came to 49 ± 4% and the activity at 1 µM was found to be 53 ± 1%. In the assay with primary cortical neurons [2], the activity at 0.01 µM was 68 ± 7% and the activity at 1 µM amounted to 74 ± 1%.

As for `COc1ccc(/C=N/Nc2cc(N(C)C)nc(N(C)C)n2)cc1` [CSV0A034004], the activity at 0.01 µM was found to be 65 ± 6% in the assay on primary cortical neurons [1] (setting [3]) and 54 ± 7% in the assay on primary cortical neurons [2] (setting [3]). For the same molecule, the activity at 1 µM in the assay with primary cortical neurons [1] (setting [4]) was determined as 76 ± 2%; in the assay with primary cortical neurons [2] (setting [4]), 55 ± 4%.

Consider `CN(C)c1cc(NNC(=O)CCc2ccccc2)nc(N(C)C)n1` [CSV0B008273], for which, in the assay on primary cortical neurons [1], the activity at 0.01 µM is 39 ± 2% and the activity at 1 µM was 36 ± 2%. For the same molecule, in the assay on primary cortical neurons [2], the activity at 0.01 µM is 46 ± 3% and the activity at 1 µM is 53 ± 2%.

Turning to `CC(C)(C)c1ccc(C(=O)NNc2cc(N3CCOCC3)nc(N3CCOCC3)n2)cc1` [CSV0B026196], the activity at 0.01 µM amounted to 36 ± 2% with primary cortical neurons [1] (setting [3]) and 83 ± 5% in the assay on primary cortical neurons [2] (setting [3]). The figures for the activity at 1 µM in the assay with primary cortical neurons [1] (setting [4]) and with primary cortical neurons [2] (setting [4]) were 32 ± 1% and 65 ± 4%, respectively.

As for `COc1cc(/C=N/Nc2cc(N3CCCC3)nc(N3CCCC3)n2)ccc1O` [CSV0B016174], the activity at 0.01 µM in the assay with primary cortical neurons [1] (setting [3]) was determined as 43 ± 3%; with primary cortical neurons [2] (setting [3]) it was 86 ± 3%. In addition, the activity at 1 µM in the assay with primary cortical neurons [1] (setting [4]) amounted to 36 ± 4%; with primary cortical neurons [2] (setting [4]), 76 ± 4%.

For the molecule `CCN(CC)c1cc(NNC(=O)c2ccccc2OC)nc(N(CC)CC)n1` [CSV0A008237], the figures for the activity at 0.01 µM with primary cortical neurons [1] (setting [3]) and in the assay on primary cortical neurons [2] (setting [3]) were 45 ± 4% and 56 ± 1%, respectively. In addition, the activity at 1 µM with primary cortical neurons [1] (setting [4]) was found to be 45 ± 8%; with primary cortical neurons [2] (setting [4]), 50 ± 9%.

With `O=[N+]([O-])c1cccc(/C=N/Nc2cc(N3CCOCC3)nc(N3CCOCC3)n2)c1` [CSV0A024807], the activity at 0.01 µM in the assay on primary cortical neurons [1] (setting [3]) came to 92 ± 2%; in the assay on primary cortical neurons [2] (setting [3]), 69 ± 3%. For the same molecule, the values for the activity at 1 µM with primary cortical neurons [1] (setting [4]) and in the assay with primary cortical neurons [2] (setting [4]) were 97 ± 2% and 60 ± 1%, respectively. In addition, the “attenuation of synaptogenesis inhibited by paclitaxel (in words)” value in the assay on primary cortical neurons [1] (setting [5]) is given as “significantly attenuated”. For the same molecule, the “rescue of neuronal damage caused by paclitaxel (immunofluorescence images)” value with primary cortical neurons [2] (pretreated, primary cortical neuron culture, Figure 1B) is on record as “significantly rescued”. For the same molecule, in the assay on primary cortical neurons [2] (setting [5]), the “protective effect in the neurite outgrowth assay (in words)” value is reported as “significant protective effect”.

Take `CC(C)(C)c1ccc(C(=O)NNc2cc(N3CCCC3)nc(N3CCCC3)n2)cc1` [CSV0A062713]: the results for the activity at 0.01 µM in the assay on primary cortical neurons [1] (setting [3]) and in the assay on primary cortical neurons [2] (setting [3]) were 33 ± 1% and 85 ± 8%, respectively. In addition, the activity at 1 µM with primary cortical neurons [1] (setting [4]) stood at 36 ± 2%; in the assay with primary cortical neurons [2] (setting [4]) it was 74 ± 5%.

`CCCN(CCC)c1cc(N/N=C/c2ccc(Cl)cc2)nc(N(CCC)CCC)n1` [CSV0A061665]: the activity at 0.01 µM in the assay on primary cortical neurons [1] (setting [3]) was determined as 27 ± 3%; with primary cortical neurons [2] (setting [3]), 37 ± 7%. The activity at 1 µM stood at 27 ± 5% with primary cortical neurons [1] (setting [4]) and 27 ± 3% in the assay with primary cortical neurons [2] (setting [4]).

In the case of `CCN(CC)c1cc(NNC(=O)c2ccc(C(C)(C)C)cc2)nc(N(CC)CC)n1` [CSV0B008884], the values for the activity at 0.01 µM with primary cortical neurons [1] (setting [3]) and in the assay with primary cortical neurons [2] (setting [3]) were 35 ± 3% and 41 ± 3%, respectively. The activity at 1 µM in the assay with primary cortical neurons [1] (setting [4]) is 37 ± 3%; with primary cortical neurons [2] (setting [4]) it was 41 ± 4%.

As for `CN(C)c1cc(NNC(=O)c2ccc(C(C)(C)C)cc2)nc(N(C)C)n1` [CSV0B002001], the values for the activity at 0.01 µM in the assay with primary cortical neurons [1] (setting [3]) and in the assay on primary cortical neurons [2] (setting [3]) were 35 ± 3% and 44 ± 3%, respectively. For the same molecule, the activity at 1 µM in the assay on primary cortical neurons [1] (setting [4]) amounted to 35 ± 3%; in the assay on primary cortical neurons [2] (setting [4]), 44 ± 3%.
